From patent US4661471A, “Method of inhibiting and inducing human platelet aggregation” (New England Deaconess Hospital, priority 1984, dated 1987)
Ends that are not written are not given here.

Tests used:
[1] = tested on: fibrinogen binding to Human platelets; experiment: Inhibition of 125I-fibrinogen binding to ADP-treated human platelets; conditions: 10^8 platelets/0.5 ml treated with 5-10 micromoles of ADP; 125I-labelled fibrinogen; read-out: IC50 or 50% inhibition of fibrinogen binding
Method: The following experiment illustrates that the peptides of the invention can inhibit fibrinogen binding to platelets. Human platelets at a concentration of 10^8 cells/0.5 ml were treated with 5-10 micromoles of ADP. Various concentrations of the inhibitory peptides were mixed with the platelets and then […] ^125 I-labelled fibrinogen was added to the solution. The IC50 or 50% inhibition of fibrinogen binding was determined for each peptide by allowing the reaction to proceed to a conclusion, separating the platelets from unbound ^125 I-fibrinogen and determining the amount of labelled fibrinogen bound to the platelets. The less labelled fibrinogen bound to the platelets, the better the inhibition.

human platelets [2] = experiment: Aggregation of ADP-treated platelets separated from plasma proteins by the synthetic peptide-albumin conjugate, in the absence of fibrinogen; assay type: cell-based; conditions: peptide added to the platelets prior to the conjugate
Method: Ten micromoles of ADP was added to 10^8 platelets which had been separated from the plasma proteins.

human platelets [3] = experiment: Inhibition of ADP-induced fibrinogen (gamma chain multimer) cross-linked aggregation of platelets, light transmission; assay type: cell-based; set-up: dose or concentration left out as unconfirmed; conditions: 10^8 platelets treated with 5-10 micromoles of ADP; 7 micromoles of gamma chain fibrinogen multimers
Method: The sole figure of the drawing illustrates the inhibition of ADP-induced fibrinogen dependent platelet aggregation caused by incubation with various peptides of the invention.
A 60 µM concentration of a variety of synthetic peptides of the invention was added to 10^8 platelets which had been treated with 5-10 micromoles of ADP. At time zero, 7 micromoles of gamma chain fibrinogen multimers was added and the transmission of the solution was monitored for platelet aggregate formation. FIG. 1 illustrates the results of this experiment. […] While gamma chain multimers were used, similar results have been obtained with bivalent fibrinogen molecules.

IC50 [1] [µM]	Substance	inhibition of aggregation induced by the synthetic peptide-albumin conjugate (human platelets [2])	inhibition of the aggregation reaction (transmission) (human platelets [3])
28	Cys-Tyr-Gly-Gln-Gln-His-His-Leu-Gly-Gly-Ala-Lys-Gln-Ala-Gly-Asp-Val-COOH (CYGQQHHLGGAKQAGDV-OH) [heptadecapeptide]	–	–
28	HHLGGAKQAGDV [dodecapeptide]	the aggregation reaction is inhibited	almost complete inhibition
